Results: patent US5140010A, “Stabilized aqueous formulations of thymopentin” (Immunobiology Research Institute, priority 1991, dated 1992)
Like-named read-outs stand apart in the source and are kept apart here. No end group written: not given here.

How the values were obtained:
[1] = human clinical research, clinical pharmacological result; type: in vivo; details: patients
Description: (§1) In experiments with thymopentin, it was observed that the optimal doses of thymopentin in an injectable aqueous formulation for immunostimulation in laboratory animals was about 1 μg/kg of body weight. For laboratory use, these dosages were prepared immediately prior to use.

[2] = immunostimulation in laboratory animals, injectable aqueous formulation; type: in vivo; details: injectable aqueous formulation prepared immediately prior to use
Description: as §1

[3] = stabilizing effect of other amino acids upon thymopentin in aqueous formulation
Description: To the peptide solution is added a sufficient amount of glycine to stabilize the solution.

For RKDVY [thymopentin], the “dose required to produce a clinical pharmacological result” value [1] was at least 1 mg/kg body weight and the “optimal dose for immunostimulation” value [2] was “about 1 μg/kg of body weight”.

With N[C@@H](Cc1c[nH]c2ccccc12)C(=O)O [tryptophan] the “stabilizing effect upon thymopentin” value [3] was “do not exert the stabilizing effect”.

With N[C@@H](CC(=O)O)C(=O)O [aspartic acid] the “stabilizing effect upon thymopentin” value [3] was “do not exert the stabilizing effect”.

In the case of NCCCC[C@H](N)C(=O)O [lysine], the “stabilizing effect upon thymopentin” value [3] is reported as “do not exert the stabilizing effect”.

With O=C(O)[C@@H]1CCCN1 [proline] the “stabilizing effect upon thymopentin” value [3] was “do not exert the stabilizing effect”.

With N[C@@H](CCC(=O)O)C(=O)O [glutamic acid] the “stabilizing effect upon thymopentin” value ([3]; amino acid in place of glycine) was “do not exert the stabilizing effect”.

In the case of N[C@@H](Cc1c[nH]cn1)C(=O)O [histidine], the “stabilizing effect upon thymopentin” value [3] is reported as “do not exert the stabilizing effect”.

In the case of C[C@H](N)C(=O)O [alanine], the “stabilizing effect upon thymopentin” value [3] is reported as “do not exert the stabilizing effect”.

For N[C@@H](Cc1ccc(O)cc1)C(=O)O [tyrosine], the “stabilizing effect upon thymopentin” value [3] was “do not exert the stabilizing effect”.

For N=C(N)NCCC[C@H](N)C(=O)O [arginine], the “stabilizing effect upon thymopentin” value [3] was “do not exert the stabilizing effect”.
